From US6723741B2, “Benzimidazoles and benzothiazoles and uses thereof” (Synaptic Pharmaceutical Corporation, priority 1996, dated 2004)
Like-named read-outs stand apart in the source and are kept apart here.

Assays:
[1] = target: T1, human α2B adrenergic receptor (Homo sapiens, UniProt P18089); assay: Radioligand binding assay, [3H]rauwolscine competition
T1 construct: expressed in transfected cells
T1 sequence (P18089 1-450): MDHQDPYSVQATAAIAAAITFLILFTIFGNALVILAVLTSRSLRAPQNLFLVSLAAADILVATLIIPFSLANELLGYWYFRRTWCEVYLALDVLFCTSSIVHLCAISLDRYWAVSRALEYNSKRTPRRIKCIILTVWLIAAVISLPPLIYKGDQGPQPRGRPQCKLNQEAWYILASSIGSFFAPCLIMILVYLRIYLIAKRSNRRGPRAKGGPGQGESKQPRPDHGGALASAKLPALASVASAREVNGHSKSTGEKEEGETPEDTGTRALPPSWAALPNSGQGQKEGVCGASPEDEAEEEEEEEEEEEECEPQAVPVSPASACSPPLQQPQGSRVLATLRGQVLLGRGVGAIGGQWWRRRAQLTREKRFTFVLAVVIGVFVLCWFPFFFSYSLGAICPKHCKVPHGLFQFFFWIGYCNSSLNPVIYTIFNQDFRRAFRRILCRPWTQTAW

[2] = target: T2, human α1A adrenergic receptor (Homo sapiens, UniProt P25100); assay: Radioligand binding assay, [3H]prazosin competition; details: cloned human α1A (old nomenclature; = α1D), LM(tk-) cell membranes, read-out: pKi Alpha-1 A (converted)
T2 construct: expressed in transfected cells
T2 sequence (P25100 1-572): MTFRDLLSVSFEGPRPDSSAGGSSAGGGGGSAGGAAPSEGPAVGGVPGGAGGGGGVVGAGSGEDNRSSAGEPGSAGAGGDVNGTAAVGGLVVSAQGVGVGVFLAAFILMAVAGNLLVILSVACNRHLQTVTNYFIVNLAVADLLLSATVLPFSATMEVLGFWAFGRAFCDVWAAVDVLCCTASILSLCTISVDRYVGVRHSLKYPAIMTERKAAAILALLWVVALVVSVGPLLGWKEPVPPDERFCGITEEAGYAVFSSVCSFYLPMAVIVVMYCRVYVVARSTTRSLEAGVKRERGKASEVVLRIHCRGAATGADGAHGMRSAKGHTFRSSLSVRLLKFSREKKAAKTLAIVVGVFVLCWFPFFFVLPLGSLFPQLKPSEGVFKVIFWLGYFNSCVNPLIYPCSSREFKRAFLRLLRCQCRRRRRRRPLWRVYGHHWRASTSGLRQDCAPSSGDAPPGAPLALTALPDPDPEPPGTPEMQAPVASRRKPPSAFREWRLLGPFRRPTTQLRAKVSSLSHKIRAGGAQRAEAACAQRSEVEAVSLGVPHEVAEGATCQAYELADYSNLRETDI
Experimental: Equilibrium competition binding assays were performed with membrane preparations from cultured LM(tk^−) cells stably transfected with the cloned human alpha adrenoreceptor subtypes except for α2b, which was expressed in Y-1 cells, using [^3H] prazosin for α1 receptors and [^3H] rauwolscine for α2 receptors. Further details of pharmacological evaluations of claimed compounds are described in Example 21.
The cloned human alpha-1 adrenergic receptor subtypes referred to throughout this application as α1A, α1B, and α1C have recently been assigned new subtype designations by the IUPHAR Nomenclature Committee as outlined in the 1995 Receptor and Ion Channel Nomenclature Supplement (Watson and Girdlestone, 1995). In the new nomenclature system the cloned human α1A receptor referred to herein was given the appellation “α1D,” while the cloned human α1C receptor referred to herein was given the appellation “α1A”. However, throughout this application and the supporting tables and figures the old nomenclature will be used to describe the cloned human alpha-1 adrenergic receptor subtypes. The old nomenclature is used throughout this application because stable cell lines expressing the cloned human alpha-1 adrenergic receptors were produced and deposited with the ATCC according to the Budapest Treaty for the Deposit of Microorganisms, under designations assigned before the nomenclature change.
The construct involved the ligation of partial overlapping human lymphocyte genomic and hippocampal cDNA clones: 5′ sequences were contained on a 1.2 kb SmaI-XhoI genomic fragment (the vector-derived BamHI site was used for subcloning instead of the internal insert-derived SmaI site) and 3′ sequences were contained on 1.3 kb XhoI-ClaI cDNA fragment (the ClaI site was from the vector polylinker). Stable cell lines were produced and selected as described above.
Transfected cells from culture flasks were scraped into 5 mL of 5 mM Tris-HCl, 5 mM EDTA, pH 7.5, and lysed by sonication. The cell lysates were centrifuged at 1000 rpm for 5 min at 4° C., and the supernatant was centrifuged at 30,000×g for 20 min at 4° C. The pellet was suspended in 50 mM Tris-HCl, 1 mM MgCl2, and 0.1% Ascorbic acid at pH 7.5. Binding of α2 antagonist [^3H] rauwolscine ([…]) to membrane preparations of LM(tk−) cells was done in a final volume of 0.25 mL and incubated at 37° C. for 20 min. Nonspecific binding was determined in the presence of 10 μM phentolamine. The reaction was stopped by filtration through GF/B filters using a cell harvester.

[3] = target: T1, human α2B adrenergic receptor; assay: Agonist activity: inhibition of forskolin-stimulated cAMP synthesis; type: cell-based; details: for I.A (Intrinsic Activity) Alpha-2 B: maximum activity relative to maximum activity induced by norepinephrine, human α2B
[4] = target: T3, human α2A adrenergic receptor (Homo sapiens, UniProt P08913); assay: Radioligand binding assay, [3H]rauwolscine competition; parameters: expressed in transfected cells
T3 sequence (P08913 1-465): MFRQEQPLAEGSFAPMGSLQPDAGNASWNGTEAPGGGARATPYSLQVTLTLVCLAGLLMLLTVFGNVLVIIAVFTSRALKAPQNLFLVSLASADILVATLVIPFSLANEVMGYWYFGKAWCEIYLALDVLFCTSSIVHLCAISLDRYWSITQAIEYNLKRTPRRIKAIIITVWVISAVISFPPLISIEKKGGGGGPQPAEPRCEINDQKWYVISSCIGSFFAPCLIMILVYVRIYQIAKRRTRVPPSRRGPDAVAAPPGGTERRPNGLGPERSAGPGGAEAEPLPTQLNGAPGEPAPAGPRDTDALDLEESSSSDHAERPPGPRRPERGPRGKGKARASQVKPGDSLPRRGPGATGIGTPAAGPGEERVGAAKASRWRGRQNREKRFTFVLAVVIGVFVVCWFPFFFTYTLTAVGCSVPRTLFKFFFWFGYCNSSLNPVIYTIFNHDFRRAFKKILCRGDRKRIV

[5] = inhibition of forskolin-stimulated cAMP, stably transfected cells expressing human α2B, read-out: pEC50 Alpha-2 B (converted)

Row | SMILES | Ki ([1]; cloned human α2B, Y-1 cell membranes, [3H]rauwolscine, read-out: pKi Alpha-2 B (converted)) | Ki [2] | EC50 [3, 5] | I.A (Intrinsic Activity) Alpha-2 B [3] | Ki ([4]; cloned human α2A, LM(tk-) cell membranes, [3H]rauwolscine, read-out: pKi Alpha-2 A (converted)) | Ki [1] | Ki [4] | EC50 [3]
1 | c1nc2ccc(NC3=NCCS3)cc2s1 [Example 15, 6-(2-Thiazolin-2-ylamino)benzothiazole] | 162 nM | 6030 nM | 138 nM | 0.57 | 115 nM |  |  | 
2 | Brc1cc(NC2=NCCN2)cc2cc[nH]c12 [Example 2, 7-Bromo-5-(2-imidazolin-2-ylamino)indole] |  | 2.88 nM | 1.91 nM | 0.75 |  | 2.88 nM | 0.724 nM | 
3 | CC(=O)c1cc(NC2=NCCN2)cc2cc[nH]c12 [Example 6, 7-Acetyl-5-(2-imidazolin-2-ylamino)indole] |  | 93.3 nM | 81.3 nM | 0.70 |  | 45.7 nM |  | 
4 | c1nc2cc(NC3=NCCN3)ccc2s1 [Example 13, 5-(2-Imidazolin-2-ylamino)benzothiazole] |  | 186 nM | 10.2 nM | 0.82 |  | 4.57 nM | 3.72 nM | 
5 | c1nc2ccc(NC3=NCCN3)cc2s1 [Example 14, 6-(2-Imidazolin-2-ylamino)benzothiazole] |  | 1700 nM |  | 0.47 |  | 14.1 nM |  | 14.1 nM
6 | N#Cc1cc(NC2=NCCN2)cc2cc[nH]c12 [Example 5, 7-Cyano-5-(2-imidazolin-2-ylamino)indole] |  | 162 nM | 316 nM | 0.60 |  | 15.5 nM |  | 
